Legend:
Assay type in all cases: in vivo
[1] = system: blackgrass (Alopecurus myosuroides); test: Test C postemergence, blackgrass; conditions: visual injury, 0 to 100 scale (0 no effect, 100 complete control)
Summary of the method: (§1)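 Plants grown in a sand and loam soil blend received the formulated test chemicals either as a preemergence soil-directed spray or postemergence at 2 to 10 cm height. After 10 or 12 greenhouse days, injury was assessed visually, with 100 meaning complete control.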

[2] = system: ryegrass, Italian (Italian ryegrass, Lolium multiflorum); test: Test C postemergence, Italian ryegrass; conditions: visual injury, 0 to 100 scale (0 no effect, 100 complete control)
Summary of the method: as §1

[3] = system: ragweed (common ragweed, Ambrosia artemisiifolia); test: Test C preemergence, ragweed; conditions: 0 is no effect, 100 is complete control
Summary of the method: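 Herbicidal effect was estimated visually on a 0–100 scale 10 or 12 days after spraying. Formulation: non-phytotoxic solvent mixture with surfactant. Timing: directed soil spray after sowing, or postemergence on seedlings bearing one or two leaves.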

[4] = system: corn (Zea mays); test: Test C postemergence, corn; conditions: for Corn plant response rating: visual injury, 0 to 100 scale (0 no effect, 100 complete control); for Plant response rating (0 to 100 scale), Corn: 0 is no effect, 100 is complete control
[5] = system: wheat (Triticum aestivum); test: Test C postemergence, wheat; conditions: visual injury, 0 to 100 scale (0 no effect, 100 complete control)
Summary of the method: as §1

[6] = system: foxtail, giant (giant foxtail, Setaria faberi); test: Test C postemergence, giant foxtail; conditions: for Foxtail, Giant plant response rating: visual injury, 0 to 100 scale (0 no effect, 100 complete control); for Plant response rating (0 to 100 scale), Foxtail, Giant: 0 is no effect, 100 is complete control
[7] = system: kochia (Bassia scoparia); test: Test C postemergence, kochia; conditions: for Kochia plant response rating: visual injury, 0 to 100 scale (0 no effect, 100 complete control); for Plant response rating (0 to 100 scale), Kochia: 0 is no effect, 100 is complete control
Summary of the method: as §1

[8] = system: ducksalad (Heteranthera limosa); test: Test D flooded paddy test, ducksalad; parameters: key: 0 = no effect, 100 = complete control; conditions: 250 g ai/ha, Flood; applied to paddy water at 2-leaf stage; visual rating after 13 days; scale 0 (no effect) to 100 (complete control)
Summary of the method: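 Plants were grown to the 2-leaf stage, then pots were flooded to 3 cm above soil and compounds applied directly into the paddy water, with that depth held throughout. After 13 days in a greenhouse, injury was visually rated against untreated controls on a 0–100 scale (0 no effect, 100 complete control).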

Structure (SMILES) | Blackgrass plant response rating ([1]; 31 g ai/ha Postemergence) | Ryegrass, Italian plant response rating ([2]; 31 g ai/ha Postemergence) | Ryegrass, Italian plant response rating ([2]; 125 g ai/ha Postemergence) | Plant response rating (0 to 100 scale), Ragweed ([3]; 31 g ai/ha Preemergence) | Plant response rating (0 to 100 scale), Ragweed ([3]; 125 g ai/ha Preemergence) | Corn plant response rating ([4]; 31 g ai/ha Postemergence) | Plant response rating (0 to 100 scale), Corn ([4]; 125 g ai/ha Postemergence) | Wheat plant response rating ([5]; 31 g ai/ha Postemergence) | Wheat plant response rating ([5]; 125 g ai/ha Postemergence) | Foxtail, Giant plant response rating ([6]; 31 g ai/ha Postemergence) | Plant response rating (0 to 100 scale), Foxtail, Giant ([6]; 125 g ai/ha Postemergence) | Kochia plant response rating ([7]; 31 g ai/ha Postemergence) | Plant response rating (0 to 100 scale), Kochia ([7]; 125 g ai/ha Postemergence) | Plant response rating, Ducksalad [8] | Blackgrass plant response rating ([1]; 125 g ai/ha Postemergence) | Corn plant response rating ([4]; 125 g ai/ha Postemergence) | Foxtail, Giant plant response rating ([6]; 125 g ai/ha Postemergence) | Kochia plant response rating ([7]; 125 g ai/ha Postemergence)
Cc1cc(C)c(N2CCC(OC3COC3)C2=O)cc1NS(=O)(=O)C(F)(F)F (stereo not shown) [Compound 34] | 30 | 40 | 90 | 50 | 100 | 60 | 90 | 70 | 80 | 40 | 90 | 80 | 90 | 65 | – | – | – | –
Cc1c(NS(=O)(=O)C(F)(F)F)cc(N2CCCC(OC3CC3)C2=O)c(C)c1F (stereo not shown) [Compound 35] | 50 | 50 | 60 | 50 | 90 | 50 | 90 | 60 | 60 | 40 | 90 | 50 | 90 | 55 | – | – | – | –
CC(=O)N(c1cc(N2CCC(OC3CC3)C2=O)c(C)cc1Cl)S(=O)(=O)C(F)(F)F (stereo not shown) [Compound 38] | 40 | 30 | 70 | 70 | 90 | 80 | 90 | 60 | 60 | 50 | 90 | 80 | 90 | 65 | – | – | – | –
Cc1c(N2CCCC(OC3CCC3)C2=O)cc(N(COC(=O)C(C)(C)C)S(=O)(=O)C(F)(F)F)c(C)c1F (stereo not shown) [Compound 39] | 0 | 0 | 30 | 0 | 80 | 0 | 10 | 0 | 60 | 0 | 10 | 30 | 60 | 55 | – | – | – | –
COC(=O)N(c1cc(N2CCC(OC3CC3)C2=O)c(C)cc1Cl)S(=O)(=O)C(F)(F)F (stereo not shown) [Compound 40] | 10 | 60 | 80 | 70 | 90 | 80 | 100 | 60 | 70 | 50 | 90 | 70 | 90 | 70 | – | – | – | –
Cc1cc(C)c(N2CCC(OCC3CC3(F)F)C2=O)cc1NS(=O)(=O)C(F)(F)F (stereo not shown) [Compound 41] | 40 | 30 | 100 | 70 | 90 | 40 | – | 60 | 60 | 20 | – | 70 | – | 60 | 60 | 90 | 90 | 80
Cc1cc(C)c(N2CCC(OCC3CCC3)C2=O)cc1NS(=O)(=O)C(F)(F)F (stereo not shown) [Compound 43] | 0 | 30 | 70 | 10 | 60 | 40 | – | 30 | 70 | 10 | – | 20 | – | 95 | 50 | 90 | 90 | 60
Cc1c(NS(=O)(=O)C(F)(F)F)cc(N2CCC(OC3CCC3)C2=O)c(C)c1C (stereo not shown) [Compound 45] | 10 | 0 | 50 | 80 | 100 | 20 | – | 20 | 60 | 30 | – | 70 | – | 85 | 40 | 90 | 80 | 100
Cc1c(NS(=O)(=O)C(F)(F)F)cc(N2CCC(OC3CC3)C2=O)c(C)c1C (stereo not shown) [Compound 47] | 40 | 50 | 90 | 70 | 100 | 70 | – | 80 | 80 | 70 | – | 40 | – | 95 | 70 | 90 | 90 | 80
Cc1c(N2CCC(OC3CCC3)C2=O)cc(N(C(=O)OCC(C)C)S(=O)(=O)C(F)(F)F)c(C)c1C (stereo not shown) [Compound 48] | 10 | 40 | 60 | 20 | 90 | 0 | – | 30 | 70 | 20 | – | 20 | – | 95 | 30 | 50 | 60 | 60
Cc1c(N2CCC(OC3CC3)C2=O)cc(N(COC(=O)C(C)(C)C)S(=O)(=O)C(F)(F)F)c(C)c1C (stereo not shown) [Compound 49] | 30 | 50 | 90 | 100 | 100 | 50 | – | 70 | 70 | 60 | – | 40 | – | 95 | 60 | 100 | 90 | 60
Cc1c(N2CCC(OC3CC3)C2=O)cc(N(C(=O)OCC(C)C)S(=O)(=O)C(F)(F)F)c(C)c1C (stereo not shown) [Compound 50] | 10 | 50 | 90 | 30 | 90 | 30 | – | 60 | 80 | 50 | – | 20 | – | 90 | 40 | 90 | 80 | 70
Cc1c(N2CCC(OC3CCC3)C2=O)cc(N(COC(=O)C(C)(C)C)S(=O)(=O)C(F)(F)F)c(C)c1C (stereo not shown) [Compound 51] | 10 | 20 | 50 | 0 | 70 | 0 | – | 20 | 70 | 0 | – | 30 | – | 85 | 20 | 60 | 40 | 70
Cc1cc(C)c(N2CCC(OCC3CCC3(F)F)C2=O)cc1NS(=O)(=O)C(F)(F)F (stereo not shown) [Compound 52] | 20 | 40 | 100 | 0 | 30 | 0 | – | 20 | 70 | 0 | – | 20 | – | 90 | 40 | 60 | 50 | 70
Cc1cc(C)c(N(COC(=O)C(C)(C)C)S(=O)(=O)C(F)(F)F)cc1N1CCC(OCC2CC2(F)F)C1=O (stereo not shown) [Compound 54] | 30 | 60 | 70 | 0 | 60 | 0 | – | 30 | 70 | 30 | – | 30 | – | 90 | 90 | 80 | 70 | 50

— patent publication US20240158348A1, “HERBICIDAL CYCLIC AMIDES N-SUBSTITUTED WITH A HALOALKYLSULFONYLANILIDE GROUP” (FMC Corporation, priority 2021, published 2024)
